# Reference: article PMC6770510, “In Vitro Production and Identification of Angiotensin Converting Enzyme (ACE) Inhibitory Peptides Derived from Distilled Spent Grain Prolamin Isolate” (Foods, 2019)
# Residues, ends and D or L forms follow the SMILES beside them.
# Biological target: T1, angiotensin converting enzyme (ACE) (Homo sapiens, UniProt P12821)
# T1 construct: purchased Dojindo Inc., Kumamoto, Japan ACE kit-WST
# Test: ACE inhibitory activity, colorimetric detection system (ACE kit-WST)
# Assay type: biochemical
# Settings: synthetic peptides; mean ± SD, n = 3; read-out: IC50 (μM) for ACE of corresponding synthetic peptides
# Experimental: The ACE inhibitory activity was determined following the method as previously described, using the colorimetric detection system (ACE kit-WST, Dojindo Inc., Kumamoto, Japan). The assay procedure was consistent with the technical manual provided by the assay kit. Briefly, 20 µL of sample solution was added to a sample well, and 20 µL of deionized water was added to blank 1 and blank 2 wells. 20 µL of substrate buffer was added to each well. 20 µL of deionized water was added to blank 2 well, while 20 µL of enzyme working solution was added to each sample and blank 1 wells. All wells containing above solutions were incubated at 37 °C for 1 h. Afterwards, 200 µL of the indicator working solution was added to each well with further incubation for 10 min. Then, the absorbance was recorded at 450 nm using a microplate reader (Cytation 3, BioTek Instruments, Inc., Winooski, VT, USA). The ACE inhibitory activity was calculated using the equation (1) ACE inhibitory activity (inhibition rate %) = Ablank1− Asample/Ablank1− Ablank2 × 100% where Ablank1 represented positive control (without ACE inhibition); Ablank2 was the absorbance of the reagent blank, while Asample was the absorbance of the sample. The concentration inducing 50% inhibition (IC50) of peptides and some samples were also determined with non-linear regression.
# T1 sequence (P12821 30-1306, species assumed): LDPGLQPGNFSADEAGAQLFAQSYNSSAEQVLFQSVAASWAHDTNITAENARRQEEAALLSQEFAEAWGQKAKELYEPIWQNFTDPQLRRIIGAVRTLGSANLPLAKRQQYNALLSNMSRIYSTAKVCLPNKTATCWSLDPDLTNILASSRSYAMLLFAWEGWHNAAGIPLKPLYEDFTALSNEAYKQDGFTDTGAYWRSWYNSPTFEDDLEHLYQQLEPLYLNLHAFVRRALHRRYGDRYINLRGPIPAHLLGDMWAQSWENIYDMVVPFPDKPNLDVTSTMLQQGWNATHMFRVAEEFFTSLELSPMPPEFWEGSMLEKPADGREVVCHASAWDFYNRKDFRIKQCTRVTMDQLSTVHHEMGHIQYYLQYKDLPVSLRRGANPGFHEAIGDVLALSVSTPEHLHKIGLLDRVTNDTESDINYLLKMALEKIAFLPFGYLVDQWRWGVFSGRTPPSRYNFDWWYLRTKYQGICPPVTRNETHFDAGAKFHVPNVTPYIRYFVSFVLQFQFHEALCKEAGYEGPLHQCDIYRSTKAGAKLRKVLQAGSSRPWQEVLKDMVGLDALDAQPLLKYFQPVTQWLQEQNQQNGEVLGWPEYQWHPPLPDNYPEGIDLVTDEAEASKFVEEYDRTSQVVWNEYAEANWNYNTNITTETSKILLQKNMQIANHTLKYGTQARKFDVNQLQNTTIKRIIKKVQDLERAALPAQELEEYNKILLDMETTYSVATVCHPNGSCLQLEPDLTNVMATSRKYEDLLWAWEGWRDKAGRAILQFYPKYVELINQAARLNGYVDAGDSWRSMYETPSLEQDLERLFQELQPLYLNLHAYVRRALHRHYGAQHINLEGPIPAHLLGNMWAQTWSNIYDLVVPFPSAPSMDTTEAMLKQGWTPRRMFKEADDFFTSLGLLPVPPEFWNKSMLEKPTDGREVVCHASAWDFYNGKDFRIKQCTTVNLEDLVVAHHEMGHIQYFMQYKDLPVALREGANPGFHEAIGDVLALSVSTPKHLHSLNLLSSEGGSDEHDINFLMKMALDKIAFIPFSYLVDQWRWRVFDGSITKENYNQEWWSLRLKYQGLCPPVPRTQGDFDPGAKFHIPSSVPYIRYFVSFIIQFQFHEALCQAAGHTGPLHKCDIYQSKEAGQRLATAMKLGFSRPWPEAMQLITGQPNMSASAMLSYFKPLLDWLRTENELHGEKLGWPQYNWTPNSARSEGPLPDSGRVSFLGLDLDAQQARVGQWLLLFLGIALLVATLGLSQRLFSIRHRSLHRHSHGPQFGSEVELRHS
row,SMILES,IC50
1,NC(=O)CC[C@H](NC(=O)[C@@H]1CCCN1C(=O)[C@@H](N)Cc1ccc(O)cc1)C(=O)O [YPQ] (H-Tyr-Pro-Gln-OH),220 ± 9.56 µM
2,CC(C)C[C@H](NC(=O)[C@@H](NC(=O)[C@@H]1CCCN1C(=O)[C@H](CC(C)C)NC(=O)[C@@H](N)C(C)C)C(C)C)C(=O)N[C@@H](CO)C(=O)O [VLPVLS] (H-VLPVLS-OH),248 ± 7.15 µM
3,CC(C)C[C@H](NC(=O)[C@H](Cc1ccc(O)cc1)NC(=O)[C@H](C)N)C(=O)N[C@@H](CCC(N)=O)C(=O)O [AYLQ] (H-AYLQ-OH),229 ± 9.63 µM
4,CC(C)C[C@H](NC(=O)[C@H](CCC(N)=O)NC(=O)[C@@H](N)CC(N)=O)C(=O)O [NQL] (H-Asn-Gln-Leu-OH),705 ± 16.1 µM
5,CC(C)[C@H](NC(=O)[C@H](C)N)C(=O)N[C@@H](CCC(N)=O)C(=O)O [AVQ] (H-Ala-Val-Gln-OH),181 ± 6.17 µM
6,CC(C)C[C@H](NC(=O)[C@H](CO)NC(=O)[C@@H]1CCCN1C(=O)[C@H](CC(C)C)NC(=O)[C@@H](N)C(C)C)C(=O)N[C@@H](CC(N)=O)C(=O)O [VLPSLN] (H-VLPSLN-OH),1246 ± 9.92 µM
